In ChEMBL document CHEMBL1909046, “DrugMatrix in vitro pharmacology data”:

Experiments:
D(3) dopamine receptor = D(3) dopamine receptor (Homo sapiens, UniProt P35462); experiment: DRUGMATRIX: Dopamine D3 radioligand binding (ligand: [3H] Spiperone); type: cell membranes, CHO, Membrane
[1] = DRUGMATRIX: Glutamate, NMDA, Phencyclidine radioligand binding (ligand: [3H] TCP); type: cell membranes, Rattus norvegicus, Wistar, Cerebral cortex, Membrane; settings: Not Active = under 50% inhibition at 10 µM
Mu-type opioid receptor = Mu-type opioid receptor (Homo sapiens, UniProt P35372); experiment: DRUGMATRIX: Opiate mu (OP3, MOP) radioligand binding (ligand: [3H] Diprenorphine); type: cell membranes, CHO-K1, Membrane; settings: cho-k1; Not Active = under 50% inhibition at 10 µM
Chain of Mu-type opioid receptor (P35372 whole entry): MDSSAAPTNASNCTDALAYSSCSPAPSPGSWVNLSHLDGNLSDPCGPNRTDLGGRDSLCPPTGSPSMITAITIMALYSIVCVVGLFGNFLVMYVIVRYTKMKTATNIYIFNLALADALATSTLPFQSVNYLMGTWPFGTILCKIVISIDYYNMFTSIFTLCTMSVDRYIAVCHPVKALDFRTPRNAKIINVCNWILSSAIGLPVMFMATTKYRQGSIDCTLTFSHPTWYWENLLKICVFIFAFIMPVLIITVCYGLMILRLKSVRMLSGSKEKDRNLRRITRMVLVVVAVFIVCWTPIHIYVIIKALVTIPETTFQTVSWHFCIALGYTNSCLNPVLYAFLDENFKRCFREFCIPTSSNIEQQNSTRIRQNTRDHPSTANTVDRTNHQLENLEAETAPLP

Progesterone receptor = biological target: T1, Progesterone receptor (Bos taurus, UniProt Q690N0); experiment: DRUGMATRIX: Progesterone radioligand binding (ligand: [3H] R-5020); type: tissue-based, Uterus; settings: Not Active = under 50% inhibition at 10 µM; for Ki: read-out: Ki
T1 sequence (Q690N0 whole entry): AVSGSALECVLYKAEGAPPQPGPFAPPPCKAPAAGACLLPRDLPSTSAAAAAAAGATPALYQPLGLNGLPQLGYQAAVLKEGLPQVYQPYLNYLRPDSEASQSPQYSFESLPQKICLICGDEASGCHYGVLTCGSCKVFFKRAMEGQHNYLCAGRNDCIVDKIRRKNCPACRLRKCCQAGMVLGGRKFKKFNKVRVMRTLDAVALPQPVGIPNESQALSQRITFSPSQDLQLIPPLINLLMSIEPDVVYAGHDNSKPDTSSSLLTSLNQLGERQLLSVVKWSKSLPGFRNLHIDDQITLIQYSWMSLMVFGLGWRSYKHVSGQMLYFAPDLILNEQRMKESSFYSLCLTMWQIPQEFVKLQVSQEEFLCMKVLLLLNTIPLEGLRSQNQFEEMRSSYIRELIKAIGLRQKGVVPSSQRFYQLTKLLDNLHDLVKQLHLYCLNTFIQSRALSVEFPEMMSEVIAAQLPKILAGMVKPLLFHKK

Neutrophil elastase = biological target: T2, Neutrophil elastase (Homo sapiens, UniProt P08246); type: tissue-based;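 note: inhibition of neutrophil elastase enzyme activity, measured with a p-nitroanilide-linked peptide substrate; in other assays of this panel Not Active means under 50% inhibition at 10 µM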
T2 sequence (P08246 whole entry): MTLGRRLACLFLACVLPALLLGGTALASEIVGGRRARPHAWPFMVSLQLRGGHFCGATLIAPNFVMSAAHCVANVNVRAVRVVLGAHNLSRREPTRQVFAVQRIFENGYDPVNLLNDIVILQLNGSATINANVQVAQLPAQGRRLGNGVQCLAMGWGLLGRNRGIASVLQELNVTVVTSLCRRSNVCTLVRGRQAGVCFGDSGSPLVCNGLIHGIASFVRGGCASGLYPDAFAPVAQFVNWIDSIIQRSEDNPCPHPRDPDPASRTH

[2] = biological target: Mitogen-activated protein kinase 1 (Homo sapiens, UniProt P28482); experiment: DRUGMATRIX: Protein Serine/Threonine Kinase, ERK2 enzyme inhibition (substrate: Myelin Basic Protein); parameters: species or system Escherichia coli; settings: Not Active = under 50% inhibition at 10 µM
Chain of Mitogen-activated protein kinase 1 (P28482 whole entry): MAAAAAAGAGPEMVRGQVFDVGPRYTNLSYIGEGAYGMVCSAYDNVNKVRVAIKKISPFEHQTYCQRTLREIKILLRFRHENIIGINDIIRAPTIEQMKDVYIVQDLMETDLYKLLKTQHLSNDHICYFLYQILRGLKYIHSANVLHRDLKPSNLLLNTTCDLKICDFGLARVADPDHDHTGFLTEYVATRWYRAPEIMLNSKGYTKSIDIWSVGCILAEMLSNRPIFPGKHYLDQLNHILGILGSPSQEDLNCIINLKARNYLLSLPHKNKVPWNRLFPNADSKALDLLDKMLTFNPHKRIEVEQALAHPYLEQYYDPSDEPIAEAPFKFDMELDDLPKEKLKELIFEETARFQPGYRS

Cytochrome P450 2C9 = Cytochrome P450 2C9 (Homo sapiens, UniProt P11712); settings: bti-tn-5b1-4; note: in other assays of this panel Not Active means under 50% inhibition at 10 µM
Chain of Cytochrome P450 2C9 (P11712 whole entry): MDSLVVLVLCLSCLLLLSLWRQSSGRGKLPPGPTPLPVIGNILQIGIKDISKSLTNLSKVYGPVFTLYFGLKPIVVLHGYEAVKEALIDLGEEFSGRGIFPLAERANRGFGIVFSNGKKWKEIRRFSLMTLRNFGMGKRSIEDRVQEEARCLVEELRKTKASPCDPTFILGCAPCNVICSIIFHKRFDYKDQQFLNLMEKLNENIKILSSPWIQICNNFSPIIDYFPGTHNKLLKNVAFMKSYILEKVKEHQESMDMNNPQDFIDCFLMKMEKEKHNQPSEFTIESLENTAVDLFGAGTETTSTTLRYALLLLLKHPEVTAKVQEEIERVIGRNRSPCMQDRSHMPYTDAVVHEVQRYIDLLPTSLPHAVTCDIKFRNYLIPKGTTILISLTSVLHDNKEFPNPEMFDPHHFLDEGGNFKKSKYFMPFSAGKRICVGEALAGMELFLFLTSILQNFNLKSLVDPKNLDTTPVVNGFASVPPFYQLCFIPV

Chain of D(3) dopamine receptor (P35462 whole entry): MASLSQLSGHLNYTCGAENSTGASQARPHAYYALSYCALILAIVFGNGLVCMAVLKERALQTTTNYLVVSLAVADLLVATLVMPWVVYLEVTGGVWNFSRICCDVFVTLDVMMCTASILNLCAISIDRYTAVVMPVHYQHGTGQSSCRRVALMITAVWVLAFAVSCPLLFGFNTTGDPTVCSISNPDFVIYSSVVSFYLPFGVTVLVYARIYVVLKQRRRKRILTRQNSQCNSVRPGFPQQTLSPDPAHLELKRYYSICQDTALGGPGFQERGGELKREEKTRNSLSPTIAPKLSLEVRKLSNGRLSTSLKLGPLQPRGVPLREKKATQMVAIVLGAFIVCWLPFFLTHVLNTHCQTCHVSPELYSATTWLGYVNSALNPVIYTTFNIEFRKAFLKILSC

Structure (SMILES) | IC50 (D(3) dopamine receptor; cho) | IC50 [1] | Ki [1] | IC50 (Mu-type opioid receptor) | IC50 (Progesterone receptor) | IC50 (Neutrophil elastase) | IC50 [2] | IC50 (Cytochrome P450 2C9) | Ki (Cytochrome P450 2C9) | IC50 (Progesterone receptor; read-out: IC50) [nM] | Ki (Progesterone receptor) [nM] | IC50 ([2]; read-out: IC50) [nM] | IC50 (D(3) dopamine receptor; read-out: IC50) [nM] | Ki (D(3) dopamine receptor; read-out: Ki) [nM]
NC(=O)C[S+]([O-])C(c1ccccc1)c1ccccc1 (configuration not stated) [MODAFINIL] | Not Active | Not Active | Not Active | Not Active | Not Active | Not Active | Not Active | Not Active | Not Active |  |  |  |  | 
C[C@@H]1CC[C@@]2(OC1)O[C@H]1[C@@H](O)[C@H]3[C@@H]4CC[C@H]5C[C@@H](O[C@@H]6O[C@H](CO)[C@H](O[C@@H]7O[C@H](CO)C(O)[C@H](O[C@@H]8OC[C@@H](O)[C@H](O)[C@H]8O)[C@H]7O[C@@H]7O[C@H](CO)[C@H](O)[C@H](O[C@@H]8O[C@H](CO)[C@@H](O)[C@H](O)[C@H]8O)[C@H]7O)[C@H](O)[C@H]6O)[C@H](O)C[C@]5(C)[C@H]4CC[C@]3(C)[C@H]1[C@@H]2C (some centres not stated) [DIGITONIN] | Not Active | Not Active | Not Active | Not Active | Not Active | Not Active | Not Active | Not Active | Not Active |  |  |  |  | 
O=C1CN=C(c2ccccc2Cl)c2cc([N+](=O)[O-])ccc2N1 [CLONAZEPAM] | Not Active | Not Active | Not Active | Not Active | Not Active | Not Active | Not Active | Not Active | Not Active |  |  |  |  | 
COC(=O)Nc1nc2ccc(C(=O)c3cccs3)cc2[nH]1 [NOCODAZOLE] | Not Active | Not Active | Not Active | Not Active | Not Active | Not Active | Not Active | Not Active | Not Active |  |  |  |  | 
C[C@H]1O[C@@H](n2cc(F)c(=O)[nH]c2=O)[C@H](O)[C@@H]1O [DOXIFLURIDINE] | Not Active | Not Active | Not Active | Not Active | Not Active | Not Active | Not Active | Not Active | Not Active |  |  |  |  | 
CC(C(=O)O)c1ccc2oc(-c3ccc(Cl)cc3)nc2c1 (configuration not stated) [BENOXAPROFEN] | Not Active | Not Active | Not Active | Not Active | Not Active | Not Active | Not Active | Not Active | Not Active |  |  |  |  | 
Nc1ccc2c3c(cccc13)C(=O)NC2=O | Not Active | Not Active | Not Active | Not Active | Not Active | Not Active | Not Active | Not Active | Not Active |  |  |  |  | 
C[n+]1ccccc1/C=N/O.[Cl-] [PRALIDOXIME CHLORIDE] | Not Active | Not Active | Not Active | Not Active | Not Active | Not Active | Not Active | Not Active | Not Active |  |  |  |  | 
NNc1nncc2ccccc12 [HYDRALAZINE] | Not Active | Not Active | Not Active | Not Active | Not Active | Not Active | Not Active | Not Active | Not Active |  |  |  |  | 
O=c1cnn([C@@H]2O[C@H](CO)[C@@H](O)[C@H]2O)c(=O)[nH]1 [6-AZAURIDINE] | Not Active | Not Active | Not Active | Not Active | Not Active | Not Active | Not Active | Not Active | Not Active |  |  |  |  | 
Cn1c(=O)c2c(ncn2CC(O)CO)n(C)c1=O (configuration not stated) [DYPHYLLINE] | Not Active | Not Active | Not Active | Not Active | Not Active | Not Active | Not Active | Not Active | Not Active |  |  |  |  | 
O=c1cc(N2CCOCC2)oc2c(-c3ccccc3)cccc12 [LY-294002] | Not Active | Not Active | Not Active | Not Active | Not Active | Not Active | Not Active | Not Active | Not Active |  |  |  |  | 
C[C@@H]1C[C@H]2[C@@H]3CCC4=CC(=O)C=C[C@]4(C)[C@@]3(F)[C@@H](O)C[C@]2(C)[C@H]1C(=O)CO [DESOXIMETASONE] | Not Active | Not Active | Not Active | Not Active |  | Not Active | Not Active | Not Active | Not Active | 84 | 11 |  |  | 
CCn1cc(C(=O)O)c(=O)c2cnc(N3CCCC3)nc21 [PIROMIDIC ACID] | Not Active | Not Active | Not Active | Not Active | Not Active | Not Active | Not Active | Not Active | Not Active |  |  |  |  | 
CCN(CC)CCOCCC1=CCC2CC1C2(C)C (configuration not stated) [MYRTECAINE] | Not Active | Not Active | Not Active | Not Active | Not Active | Not Active | Not Active | Not Active | Not Active |  |  |  |  | 
COC(=O)Nc1nc2ccc([S+]([O-])c3ccccc3)cc2[nH]1 (configuration not stated) [OXFENDAZOLE] | Not Active | Not Active | Not Active | Not Active | Not Active | Not Active | Not Active | Not Active | Not Active |  |  |  |  | 
Oc1c(Cl)cc(Cl)c(Cl)c1Cc1c(O)c(Cl)cc(Cl)c1Cl [HEXACHLOROPHENE] | Not Active | Not Active | Not Active | Not Active | Not Active | Not Active |  | Not Active | Not Active |  |  | 196 |  | 
C[C@]12C=CC(=O)C=C1CC[C@@H]1[C@@H]2[C@@H](O)C[C@@]2(C)[C@H]1CC[C@]2(O)C(=O)CO [PREDNISOLONE] | Not Active | Not Active | Not Active | Not Active | Not Active | Not Active | Not Active | Not Active | Not Active |  |  |  |  | 
O=C1O[C@H]([C@@H](O)CO)C(O)=C1O [ASCORBIC ACID] | Not Active | Not Active | Not Active | Not Active | Not Active | Not Active | Not Active | Not Active | Not Active |  |  |  |  | 
COc1ccc(C2C(=O)c3ccccc3C2=O)cc1 [ANISINDIONE] | Not Active | Not Active | Not Active | Not Active | Not Active | Not Active | Not Active | Not Active | Not Active |  |  |  |  | 
Brc1c(NC2=NCCN2)ccc2nccnc12 [BRIMONIDINE] | Not Active | Not Active | Not Active | Not Active | Not Active | Not Active | Not Active | Not Active | Not Active |  |  |  |  | 
COc1ccc(C(=O)N2CCCC2=O)cc1 | Not Active | Not Active | Not Active | Not Active | Not Active | Not Active | Not Active | Not Active | Not Active |  |  |  |  | 
CCC1(C)CC(=O)NC1=O (configuration not stated) [ETHOSUXIMIDE] | Not Active | Not Active | Not Active | Not Active | Not Active | Not Active | Not Active | Not Active | Not Active |  |  |  |  | 
OC(CCCN1CCCCC1)(c1ccccc1)c1ccccc1 [DIPHENIDOL] |  | Not Active | Not Active | Not Active | Not Active | Not Active | Not Active | Not Active | Not Active |  |  |  | 2310 | 785
CCC(=O)O[C@]1(C(=O)CCl)[C@@H](C)C[C@H]2[C@@H]3CCC4=CC(=O)C=C[C@]4(C)[C@@]3(F)[C@@H](O)C[C@@]21C [CLOBETASOL PROPIONATE] | Not Active | Not Active | Not Active | Not Active |  | Not Active | Not Active | Not Active | Not Active | 12 | 1.52 |  |  | 
Cc1c(OCC(F)(F)F)ccnc1C[S+]([O-])c1nc2ccccc2[nH]1 (configuration not stated) [LANSOPRAZOLE] | Not Active | Not Active | Not Active | Not Active | Not Active | Not Active | Not Active | Not Active | Not Active |  |  |  |  | 
